According to PubChem BioAssay (NCI):
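Cultured in 96-well plates, cells were exposed to test compound for 48 hours across five concentrations. Abbreviation: GI50, concentration required for 50% inhibition of growth. TGI: total growth inhibition.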

What was measured:
Test in all cases: NCI-60 cell line screen, 48 h
HOP-62 NSCLC = system: HOP-62 NSCLC
NCI/ADR-RES ovarian = system: NCI/ADR-RES ovarian
MALME-3M melanoma = system: MALME-3M melanoma
K-562 leukemia = system: K-562 leukemia
OVCAR-3 ovarian = system: OVCAR-3 ovarian
M14 melanoma = system: M14 melanoma
SF-539 CNS = system: SF-539 CNS
MDA-MB-231 breast = system: MDA-MB-231 breast
MCF7 breast = system: MCF7 breast
HCC-2998 colon = system: HCC-2998 colon

| Compound | TGI (HOP-62 NSCLC) [µM] | TGI (NCI/ADR-RES ovarian) [µM] | TGI (MALME-3M melanoma) [µM] | TGI (K-562 leukemia) [µM] | TGI (OVCAR-3 ovarian) [µM] | TGI (M14 melanoma) [µM] | TGI (SF-539 CNS) [µM] | TGI (MDA-MB-231 breast) [µM] | TGI (MCF7 breast) [µM] | TGI (HCC-2998 colon) [µM] | GI50 (M14 melanoma) [µM] | GI50 (SF-539 CNS) [µM] |
| --- | --- | --- | --- | --- | --- | --- | --- | --- | --- | --- | --- | --- |
| COc1ccc(Nc2nc(N)c(C(=O)c3ccco3)s2)cc1 | > 100 | > 94.8 | > 100 | > 100 | > 70.6 | > 100 | 63.2 | > 100 | > 100 | 71.9 |  |  |
| CCOC(=O)C(NC(=O)c1ccccc1)(Nc1ccc(S(=O)(=O)Nc2cc(C)on2)cc1)C(F)(F)F (configuration not stated) | > 100 | > 100 | > 100 | > 100 | > 100 | > 100 | > 100 | > 100 | > 100 | > 100 |  |  |
| CCOC1OC(C)(C=C(C#N)C#N)CCC1C (configuration not stated) | > 100 | > 88.7 | > 100 | 56.8 | > 71.6 | > 100 | 56.6 | > 100 | > 100 | > 74.3 |  |  |
| CCOC(=O)c1c(-c2ccc(Cl)cc2)c(C#N)c(=S)n(C2OC(COC(C)=O)C(OC(C)=O)C(OC(C)=O)C2OC(C)=O)c1C (configuration not stated) | > 100 | > 100 | > 100 | > 100 | > 100 | > 100 | > 100 | > 100 | > 100 | > 100 |  |  |
| CC(=O)CCN1CC2CN=NC2(C#N)C1 (configuration not stated) | > 100 | > 100 | > 100 | > 48.2 | > 100 | > 100 | > 100 | > 100 | > 100 | > 100 | > 100 | > 100 |
| COC1=C(OC)C(=O)C(Cc2c(-c3ccccc3)nc3sc(Cl)cn23)=C(C)C1=O | 38.2 | 39.9 | 33.2 | 52.4 | 32 | 33.7 | 31.6 | 24.6 | 52.4 | 46.6 |  |  |
| Fc1nc(Sc2ncnc3nc[nH]c23)nc(-c2c3ccccc3c3sc4ccccc4n23)n1 | > 100 | > 100 | > 100 | > 100 | > 100 | > 100 | > 100 | > 100 | > 100 | > 100 |  |  |
| CC[P+](c1ccccc1)(N(C)C)N(C)C | > 100 | > 100 | > 100 | > 100 | > 100 | > 100 | > 100 | > 100 | > 100 | > 100 |  |  |
| COc1cc2c(cc1OC)C(C1CC1)ON(C)CC2 (configuration not stated) | > 100 | > 100 | > 100 | > 100 | > 100 | > 100 | > 100 | > 100 | > 100 | > 100 |  |  |
| Cc1cc(C)n(C(C)(C(=O)Cc2ccccc2)n2nc(C)cc2C)n1 | > 100 | > 100 | > 100 | > 100 | > 100 | > 100 | > 100 | > 100 | > 100 | > 100 |  |  |
| O=C(CN1CCCC1)Nc1ccc2c(c1)C1Oc3ccccc3CC1CO2 (configuration not stated) | 45.5 | > 100 | 33.4 | > 100 | > 100 | 36.4 | 39.5 | 75.7 | 32.4 | 34.9 |  |  |
| Nc1ccc2c3c1cccc3c(=O)n1c3ccc(Cc4ccc5c(c4)nc4c6ccc(N)c7cccc(c(=O)n54)c76)cc3nc21 | > 100 | > 100 | > 100 | > 100 | > 100 | > 100 | > 100 | > 100 | > 100 | > 100 |  |  |
| Nc1ncnc2c1ncn2CCCNO | > 100 | > 100 | > 100 | > 100 | > 100 | > 100 | > 100 | > 100 | > 100 | > 100 |  |  |
| COC(=O)c1c2c(cc3c1CC1(Cc4cc5c(cc4C1)CCCC5)C3)CCCC2 | > 100 | > 100 | > 100 | > 100 | > 100 | > 100 | > 100 | > 100 | > 100 | > 100 |  |  |
| O=C(CCCCCCCCC(=O)N1C(=O)CC(=O)N(c2ccc(Cl)cc2)C1=S)N1C(=O)CC(=O)N(c2ccc(Cl)cc2)C1=S | > 100 | > 100 | > 100 | > 100 | > 100 | > 100 | > 100 | > 100 | > 100 | > 100 |  |  |
| NCC1OC(OC2C(N)CC(N)C(O)C2OC2OC(CO)C(O)C2O)C(N)C(O)C1O (configuration not stated) | > 50 | > 100 | > 100 | > 100 | > 100 | > 100 | > 100 | > 100 | > 100 | > 100 |  |  |
| CC(C)NC(=O)OCCN=C1c2ccccc2C(Br)C(Br)c2ccccc21 (configuration not stated) | 30 | 41.7 | 17.2 | 3.62 | 35.6 | 16.2 | 9.64 | 30.5 | 28.2 | 49.8 |  |  |
